Where two headings read alike, the source gives them in different places. No end group written: not given here.
Tests used:
RyR2 = test system: RyR2; set-up: method as in 2 sources, one per row (each row's own in cited_ref): ref Zahradnikova and Zahradnik, 1993 ||| ref Faltinova and Zahradnikova, 2013; settings: ref Zahradnikova and Zahradnik, 1993; cited from earlier work
RyR2 channel = molecular target: T1, RyR2 channel (Rattus norvegicus, UniProt B0LPN4); test: Single RyR2 channel measurements in planar lipid bilayers; type: biochemical; settings: for EC50: 50% of maximum increase of open probability; for Kd: PO at 0.5–2 μM peptide, cytosolic Ca2+ 100 nM, read-out: Kp, dissociation constant of DPcpvtN2; for POmax, maximum open probability: PO0 0.0039
T1 construct: RyR2 channels were incorporated from a suspension of microsomal vesicles of the SR; from tissue; host or cells: rat (Wistar Han) heart ventricles, cardiac SR microsomes
Experimental: All experimental protocols were approved by the State veterinary and food administration of the Slovak Republic (Ro-3820/05-221, Ro-2821/09-221) and by the ethical committee of the Centre of Biosciences. All methods were carried out in accordance with the European directive 2010/63/EU. Male rats (Wistar Han, 240–310 g, breeding station Dobra Voda, reg. No. SK CH 24011, Slovak Republic) were anesthetized with sodium pentobarbital (50 mg kg^−1 i.p.), the hearts were excised, and cardiac SR microsomes were isolated from rat heart ventricles by differential centrifugation without further purification steps, as previously described (Gaburjakova and Gaburjakova, [2006]; Faltinova and Zahradnikova, [2013]), snap frozen in liquid nitrogen and stored at −70°C.
Preparation of bilayers, incorporation of channels and electrophysiological measurements were performed as previously described (Faltinova and Zahradnikova, [2013]). In brief, bilayer lipid membranes were formed over a 20–50 μm aperture in a polystyrene chamber. The aperture was first treated with a solution (26 mg/ml) of DOPS, DOPC and DPPC (3:5:5) in N-decane (Aldrich, USA). After evaporation of N-decane, the cis and trans compartments of the bilayer chamber were filled with the solutions (in mmol/l): cis, 250 HEPES, 50 KCl, 1 EGTA, 125 TRIS, 0.5 CaCl2, pH 7.35, [Ca^2+] = 90 nM; trans, 30 HEPES, 50 KCl, 1 Ca(OH)2, 7 Ba(OH)2, pH 7.35, and the bilayer was formed using a mixture of DOPS and DOPE (3:10; 26 mg/ml in N-decane). After formation of a bilayer, RyR2 channels were incorporated from a suspension of microsomal vesicles of the SR, added to the cis compartment. RyR identity was checked at the beginning of the experiment at high Ca^2+, when it was characteristic by its single-channel amplitude and open duration (Tencerova et al., [2012]; Faltinova and Zahradnikova, [2013]). Under the above ionic conditions, no other channels have similar properties. Detection of RyR channel was followed by perfusion to a basal Ca^2+ level. The identity of RyR was occasionally further tested at the end of the experiment by addition of 100 μM Ca^2+.
Currents through the incorporated single RyR2 channels were measured in voltage-clamp mode at 0 mV with MultiClamp 700B amplifier (Molecular Devices, USA) with a 50 GΩ feed-back resistor. The signal was filtered by a 4-pole Bessel filter at 1 kHz and digitized using an A/D converter (Digidata 1440A, Molecular Devices, USA) at a frequency of 4 kHz. Acquisition and analysis were performed using pClamp software (Ver. 10, Molecular Devices, USA) and Origin Pro (Ver. 9, OriginLab Corporation, USA).
Equilibrium open probabilities for different gating models (Equations 1–3) were determined from the gating schemes. Equations were derived using Mathematica (Ver. 10, Wolfram Research, USA) as previously described (Zahradnik et al., [2005]). The value of EC50 was calculated in Mathematica from Equations (1) to (3) as the ligand concentration, at which the increase of open probability reached 50% of maximum increase.

[1] = CD spectroscopy (secondary structure); type: physicochemical
Experimental: Circular dichroism (CD) measurements were performed using a Jasco J-810 spectropolarimeter (Japan). CD measurements were performed in the 198–250 nm wavelength range, which enabled estimation of the secondary structure of the peptide. The DPcpvtN2 peptide was dissolved either in 2 mM Na-phosphate (pH 7.0) or in 99.8% ethanol to a final concentration of 1.5–7 μM. CD spectra were expressed as averages of 3–5 consecutive scans. 1 mm cuvette was used for measurements. Typically, a time constant of 2 s, bandwidth of 2.0 nm, scanning speed 200 nm/min and the standard sensitivity were used. The spectra were analyzed using the web server CAPITO (Wiedemann et al., [2013]), which provides the percentage of α-helical, β-sheet and random coil in the secondary structure.

T1 sequence (B0LPN4 whole entry): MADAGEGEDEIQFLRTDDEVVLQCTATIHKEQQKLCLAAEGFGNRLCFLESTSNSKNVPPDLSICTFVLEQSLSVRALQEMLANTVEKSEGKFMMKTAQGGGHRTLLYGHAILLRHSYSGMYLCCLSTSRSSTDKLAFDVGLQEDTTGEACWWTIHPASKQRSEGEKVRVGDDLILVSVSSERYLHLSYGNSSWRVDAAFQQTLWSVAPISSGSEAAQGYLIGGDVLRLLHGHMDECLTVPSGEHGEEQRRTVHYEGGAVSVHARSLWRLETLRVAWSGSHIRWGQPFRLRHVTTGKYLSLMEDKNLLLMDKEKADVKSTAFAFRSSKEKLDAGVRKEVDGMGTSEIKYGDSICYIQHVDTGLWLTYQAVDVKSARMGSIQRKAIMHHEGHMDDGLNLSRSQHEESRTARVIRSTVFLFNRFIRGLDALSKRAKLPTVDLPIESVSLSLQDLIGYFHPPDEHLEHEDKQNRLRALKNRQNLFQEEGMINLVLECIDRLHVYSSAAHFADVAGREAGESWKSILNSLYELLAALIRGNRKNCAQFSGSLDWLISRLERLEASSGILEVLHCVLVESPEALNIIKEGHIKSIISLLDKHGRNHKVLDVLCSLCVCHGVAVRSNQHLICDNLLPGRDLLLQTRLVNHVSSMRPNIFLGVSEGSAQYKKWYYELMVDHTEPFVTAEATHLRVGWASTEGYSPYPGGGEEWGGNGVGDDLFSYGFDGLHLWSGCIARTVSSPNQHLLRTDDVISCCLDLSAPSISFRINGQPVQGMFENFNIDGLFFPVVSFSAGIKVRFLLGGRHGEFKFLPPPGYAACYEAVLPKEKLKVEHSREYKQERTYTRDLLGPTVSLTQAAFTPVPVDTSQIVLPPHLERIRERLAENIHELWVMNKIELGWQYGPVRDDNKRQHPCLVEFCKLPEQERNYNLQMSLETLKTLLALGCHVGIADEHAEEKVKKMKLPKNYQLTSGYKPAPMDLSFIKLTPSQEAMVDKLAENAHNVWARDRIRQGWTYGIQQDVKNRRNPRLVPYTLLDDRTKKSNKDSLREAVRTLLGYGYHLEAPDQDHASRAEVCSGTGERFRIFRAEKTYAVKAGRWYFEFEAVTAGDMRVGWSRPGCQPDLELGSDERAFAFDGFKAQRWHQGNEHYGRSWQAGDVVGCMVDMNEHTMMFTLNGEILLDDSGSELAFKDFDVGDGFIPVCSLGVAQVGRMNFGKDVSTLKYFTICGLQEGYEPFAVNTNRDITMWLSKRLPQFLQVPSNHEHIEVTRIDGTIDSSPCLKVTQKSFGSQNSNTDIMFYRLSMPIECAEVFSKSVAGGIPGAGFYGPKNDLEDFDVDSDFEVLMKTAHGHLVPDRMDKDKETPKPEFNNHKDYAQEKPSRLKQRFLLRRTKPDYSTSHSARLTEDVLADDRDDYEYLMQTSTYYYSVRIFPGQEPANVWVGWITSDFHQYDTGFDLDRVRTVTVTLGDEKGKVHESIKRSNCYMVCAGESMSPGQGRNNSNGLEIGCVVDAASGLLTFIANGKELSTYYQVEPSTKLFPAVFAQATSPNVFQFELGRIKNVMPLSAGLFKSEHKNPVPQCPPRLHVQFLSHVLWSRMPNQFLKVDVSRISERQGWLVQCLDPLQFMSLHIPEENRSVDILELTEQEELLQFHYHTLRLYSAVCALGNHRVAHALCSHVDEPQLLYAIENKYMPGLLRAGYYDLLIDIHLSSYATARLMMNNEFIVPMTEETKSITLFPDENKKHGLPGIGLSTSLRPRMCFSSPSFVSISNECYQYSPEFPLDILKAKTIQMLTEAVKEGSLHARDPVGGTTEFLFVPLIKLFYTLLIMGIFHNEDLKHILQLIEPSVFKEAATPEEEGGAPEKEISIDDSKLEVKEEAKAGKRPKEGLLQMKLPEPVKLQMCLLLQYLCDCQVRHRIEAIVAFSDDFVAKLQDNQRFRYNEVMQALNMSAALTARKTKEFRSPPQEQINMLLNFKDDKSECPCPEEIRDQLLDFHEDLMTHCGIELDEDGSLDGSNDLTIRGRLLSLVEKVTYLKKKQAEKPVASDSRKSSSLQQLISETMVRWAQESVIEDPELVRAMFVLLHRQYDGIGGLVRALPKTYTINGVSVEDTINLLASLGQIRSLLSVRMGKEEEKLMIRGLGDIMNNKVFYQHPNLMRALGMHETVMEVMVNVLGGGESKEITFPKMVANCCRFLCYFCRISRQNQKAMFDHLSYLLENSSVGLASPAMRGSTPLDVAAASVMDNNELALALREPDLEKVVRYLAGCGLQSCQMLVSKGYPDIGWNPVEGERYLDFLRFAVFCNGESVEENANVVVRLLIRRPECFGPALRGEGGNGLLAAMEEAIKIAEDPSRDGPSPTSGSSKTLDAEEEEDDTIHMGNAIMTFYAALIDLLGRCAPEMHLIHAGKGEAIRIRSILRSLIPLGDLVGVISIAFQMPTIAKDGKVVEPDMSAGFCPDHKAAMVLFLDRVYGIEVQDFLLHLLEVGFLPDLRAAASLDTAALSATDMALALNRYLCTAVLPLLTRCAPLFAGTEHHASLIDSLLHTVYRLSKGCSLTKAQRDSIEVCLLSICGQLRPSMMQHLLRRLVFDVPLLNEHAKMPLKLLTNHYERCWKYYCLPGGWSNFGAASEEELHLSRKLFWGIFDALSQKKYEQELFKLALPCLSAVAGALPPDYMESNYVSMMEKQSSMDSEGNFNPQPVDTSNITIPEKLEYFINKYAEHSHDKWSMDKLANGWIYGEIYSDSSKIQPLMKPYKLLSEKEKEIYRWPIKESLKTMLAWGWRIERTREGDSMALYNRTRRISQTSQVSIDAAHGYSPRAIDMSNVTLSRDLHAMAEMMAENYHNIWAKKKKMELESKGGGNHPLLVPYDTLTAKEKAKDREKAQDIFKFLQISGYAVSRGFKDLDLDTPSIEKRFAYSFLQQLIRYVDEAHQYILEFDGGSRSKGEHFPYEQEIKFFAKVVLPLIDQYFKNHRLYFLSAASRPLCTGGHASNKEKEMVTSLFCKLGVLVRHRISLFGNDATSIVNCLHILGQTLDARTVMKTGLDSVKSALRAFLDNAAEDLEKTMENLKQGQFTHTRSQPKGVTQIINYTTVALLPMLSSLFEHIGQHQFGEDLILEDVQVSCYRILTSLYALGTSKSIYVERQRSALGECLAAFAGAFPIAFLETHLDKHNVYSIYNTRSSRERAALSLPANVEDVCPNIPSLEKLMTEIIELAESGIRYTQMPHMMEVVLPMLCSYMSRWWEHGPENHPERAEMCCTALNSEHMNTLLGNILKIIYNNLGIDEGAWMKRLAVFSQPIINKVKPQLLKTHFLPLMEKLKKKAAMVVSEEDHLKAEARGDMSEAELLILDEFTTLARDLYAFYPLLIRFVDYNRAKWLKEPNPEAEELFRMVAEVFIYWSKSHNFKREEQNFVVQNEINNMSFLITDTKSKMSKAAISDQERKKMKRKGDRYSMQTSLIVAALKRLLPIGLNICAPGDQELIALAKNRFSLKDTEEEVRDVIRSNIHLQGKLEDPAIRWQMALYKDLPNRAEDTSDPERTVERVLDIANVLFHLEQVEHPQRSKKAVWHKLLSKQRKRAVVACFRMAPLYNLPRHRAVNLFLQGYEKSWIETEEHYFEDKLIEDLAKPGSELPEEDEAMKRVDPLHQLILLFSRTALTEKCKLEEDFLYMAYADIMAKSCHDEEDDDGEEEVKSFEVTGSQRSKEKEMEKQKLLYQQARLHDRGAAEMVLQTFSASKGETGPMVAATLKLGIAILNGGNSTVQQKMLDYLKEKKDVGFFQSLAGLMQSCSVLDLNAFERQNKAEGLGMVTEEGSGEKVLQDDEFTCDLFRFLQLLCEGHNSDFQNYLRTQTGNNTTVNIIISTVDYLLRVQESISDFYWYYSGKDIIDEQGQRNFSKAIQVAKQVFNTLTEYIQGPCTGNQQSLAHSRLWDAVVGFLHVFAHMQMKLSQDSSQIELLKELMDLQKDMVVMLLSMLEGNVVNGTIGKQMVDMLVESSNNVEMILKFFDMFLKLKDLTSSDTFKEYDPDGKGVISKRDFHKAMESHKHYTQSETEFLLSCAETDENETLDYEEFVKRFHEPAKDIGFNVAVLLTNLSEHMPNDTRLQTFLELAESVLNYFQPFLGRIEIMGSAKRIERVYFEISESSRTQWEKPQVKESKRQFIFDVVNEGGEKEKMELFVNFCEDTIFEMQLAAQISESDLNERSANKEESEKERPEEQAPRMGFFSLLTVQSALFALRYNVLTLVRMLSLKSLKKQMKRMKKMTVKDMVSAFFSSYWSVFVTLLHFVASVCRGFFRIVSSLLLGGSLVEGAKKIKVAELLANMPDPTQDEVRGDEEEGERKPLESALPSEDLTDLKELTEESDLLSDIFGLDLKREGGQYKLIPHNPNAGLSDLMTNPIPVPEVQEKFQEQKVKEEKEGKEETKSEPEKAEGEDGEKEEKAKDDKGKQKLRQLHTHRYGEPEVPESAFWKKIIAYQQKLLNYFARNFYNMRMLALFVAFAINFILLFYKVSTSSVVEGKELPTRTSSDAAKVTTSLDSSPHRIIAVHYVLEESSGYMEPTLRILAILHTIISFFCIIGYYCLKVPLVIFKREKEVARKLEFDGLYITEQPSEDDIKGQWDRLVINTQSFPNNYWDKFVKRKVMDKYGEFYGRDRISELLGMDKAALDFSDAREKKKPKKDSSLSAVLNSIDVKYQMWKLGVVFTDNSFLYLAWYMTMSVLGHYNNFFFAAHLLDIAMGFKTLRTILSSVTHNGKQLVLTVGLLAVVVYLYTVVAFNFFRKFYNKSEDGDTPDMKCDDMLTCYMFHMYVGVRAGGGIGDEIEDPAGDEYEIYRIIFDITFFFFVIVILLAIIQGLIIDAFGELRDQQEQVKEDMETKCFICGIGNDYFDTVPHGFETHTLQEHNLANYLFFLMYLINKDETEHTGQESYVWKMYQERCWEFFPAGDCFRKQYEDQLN

Question: With `O=S(=O)(O)c1cc(N=C=S)ccc1C=Cc1ccc(N=C=S)cc1S(=O)(=O)O` [DIDS] as the compound, how does the “Effect on RyR2 activity” value (RyR2) read?
Answer: Its value is “all-or-none”.

Question: With “HEESRTARVIRSTVFLFBRFIRGLDALSK (HEESRTARVIRSTVFLFXRFIRGLDALSK; not fully specified) [DPcpvtN2, domain peptide containing amino acids 410–438 of human RyR2, the central helix of the N-terminal region]” as the compound, how does the EC50 (RyR2 channel; calculated from Equation (1), gating scheme GS1) read?
Answer: Its EC50 is 66.4 µM.

Question: What about the EC50 (RyR2 channel; calculated from Equation (2), gating scheme GS2) of the same compound?
Answer: The EC50 was 17.6 µM.

Question: And the EC50 (RyR2 channel; calculated from Equation (3), gating scheme GS3)?
Answer: The EC50 was 0.41 µM.

Question: And the Kd (RyR2 channel; fit by gating scheme GS1 (Equation 1: one peptide bound opens channel), 0 mV, n = 9 channels)?
Answer: Its Kd is 351 ± 99 µM.

Question: What about the Kd (RyR2 channel; fit by gating scheme GS2 (Equation 2: four peptides bound open channel; fit rejected), 0 mV, n = 9 channels) of the same compound?
Answer: The Kd was 3.35 ± 0.56 µM.

Question: Which “Effect on RyR2 open probability” value (RyR2 channel; 0.5–2 μM, cis side, diastolic conditions (100 nM cytosolic Ca2+, 1 mM luminal Ca2+, 0 mV), 2-min recording, n = 9 channels) does the source give for “HEESRTARVIRSTVFLFBRFIRGLDALSK [DPcpvtN2, domain peptide containing amino acids 410–438 of human RyR2, the central helix of the N-terminal region]” here?
Answer: The value was “Increase in open probability and the presence of long openings could be observed at all DPcpvtN2 concentrations”.

Question: What about the “Time to occurrence of long openings after addition” value (RyR2 channel; 0.5–2 μM, diastolic conditions, 0 mV) of the same compound?
Answer: Its value is ≤ 1 min.

Question: What about the “Open time (tO) of long openings” value (RyR2 channel; 0.5–2 μM, diastolic conditions, 0 mV, control openings tO ~ 15 ms) of the same compound?
Answer: The value was > 100 ms.

Question: And the “fp, allosteric factor” value (RyR2 channel; fit by gating scheme GS3 (Equation 3), couples DPcpvtN2 binding to channel opening)?
Answer: The value was 0.61 ± 0.10.

Question: And the “POmax, maximum open probability” value (RyR2 channel; gating scheme GS1)?
Answer: The value was 1.

Question: And the “POmax, maximum open probability” value (RyR2 channel; gating scheme GS2)?
Answer: Its value is 1.

Question: What about the “POmax, maximum open probability” value (RyR2 channel; gating scheme GS3) of the same compound?
Answer: The value was 0.0275.

Question: And the “Reversibility of the interaction between channel and peptide” value (RyR2 channel; inferred from concentration dependence of RyR open probability)?
Answer: Its value is “readily reversible”.

Question: And the “Ellipticity in ethanol compared with aqueous solution” value ([1]; 1.5–3 μM, ethanol vs. phosphate buffer pH 7.0)?
Answer: Its value is “an order of magnitude higher”.

Question: What about the “Content of α-helix” value ([1]; CD spectra, 1.5–3 μM in phosphate buffer pH 7.0 or ethanol (solvent of the estimate not specified), CAPITO web server) of the same compound?
Answer: Its value is 99%.
